The values below come from patent US7288541B2, “Propylcarbamate derivatives as inhibitors of serine and cysteine proteases” (SmithKline Beecham Corporation, priority 2001, dated 2007).

Some results are limits rather than exact numbers.

As usually defined, the IC50 is the concentration needed to halve the response being measured.

The target of the first assay is T1, human cathepsin K (Homo sapiens, UniProt P43235).
T1 construct: The proform of cathepsin K was converted to mature cathepsin K by brief exposure to pH 4; made in house; host or cells: baculovirus; Trichoplusia ni High Five cells (virus raised in Sf-9)
T1 sequence (P43235 115-329): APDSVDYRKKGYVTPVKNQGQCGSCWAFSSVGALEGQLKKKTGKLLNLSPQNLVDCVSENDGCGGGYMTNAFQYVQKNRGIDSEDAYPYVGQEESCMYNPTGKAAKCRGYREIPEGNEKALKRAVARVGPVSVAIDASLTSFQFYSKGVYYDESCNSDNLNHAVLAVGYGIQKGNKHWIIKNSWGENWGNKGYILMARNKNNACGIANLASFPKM
Description: Cathepsin K inhibition, fluorogenic substrate Cbz-Phe-Arg-AMC, progress curve method.
Conditions: not given
It is filed as biochemical. The method, then: All assays for cathepsin K were carried out with human and rat recombinant enzyme. Assays for cathepsins S & V were also carried out with human recombinant enzyme. Assays for human cathepsins B, H, and L were carried out with enzyme prepared from human liver tissue. […] A stock substrate solution of Cbz-Phe-Arg-AMC was prepared at a concentration of 50 mM in dimethyl sulfoxide. This substrate was diluted into the assay for a final substrate concentration of 10 μM in the rat cathepsin K, human cathepsin K, and human cathepsin B assays; a final substrate concentration of 5 μM in the human cathepsin L assay; and a final substrate concentration of 2 μM in the human cathepsin V assay.
All assays contained 10% dimethyl sulfoxide. […] All assays were conducted at 30° C. Product fluorescence (excitation at 360 nm; emission at 440 nm, (except cathepsin H which used excitation at 340 nm; emission at 420 nm)) was monitored with a PerSeptive Biosystems Cytofluor II fluorescence plate reader. Product progress curves were generated over 2.3 h monitoring the formation of 7-amino-4-methylcoumarin product (or β-naphthalamide for cathepsin H).
Human and Rat Cathepsin K:
The cells continued to grow for 72 h post-infection, before the virus was harvested by centrifugation at 1400×g for 30 min.
One and one-half liters of Trichoplusia ni (T. ni) High Five (TM) cells [JRH Biosciences, Woodland, Calif. […] The cells were grown for 24 h at 28° C., 50 RPM, and 50% dissolved oxygen. […] Media were separated from cells at a rate of 1 L/min using the Centritech 100 (TM) continuous-flow centrifuge (DuPont) operating at 200×g.
Protein Purification: Media (human and rat) were filtered through a Whatman 3 filter, and then loaded onto a 25 mL Poros HS II (26 mm×47 mm) cation exchange column equilibrated in 25 mM sodium acetate at pH 5.5 (equilibration buffer). The column was washed until the absorbance reached the baseline value, and then the protein was eluted with a linear gradient from 0–2 M sodium chloride in the equilibration buffer. Column fractions were analyzed by SDS-PAGE, N-terminal sequencing, and mass spectrometry. Fractions containing the proform of cathepsin K were pooled and frozen at −80° C. The proform was concentrated in an Amicon Centriprep 10 and fractionated with a Superdex 75 column (26 mm×600 mm, Pharmacia) equilibrated in 400 mM sodium chloride, 25 mM sodium acetate at pH 5.5.
Cathepsin K Activation: The proform of cathepsin K was converted to mature cathepsin K by brief exposure to pH 4 in the presence of 5 mM L-cysteine. Typically, 5 mM L-cysteine was added to 10 mL of approximately 1 mg/mL procathepsin K. One mL of this solution was diluted ten-fold into 450 mM sodium acetate at pH 4.0 containing 5 mM L-cysteine. This solution was reacted at 23° C. for 2 min before neutralization with 2 mL 1.8 M sodium acetate at pH 6.0. The neutralized sample was added to the remaining 9 mL of procathepsin K. The mixture was incubated at 4° C. for 2–3 days. The activated cathepsin K was chromatographed on a Poros HS II column as described above.
Potential inhibitors were evaluated using the progress curve method. Assays were carried out in the presence of variable concentrations of test compound. Reactions were initiated by addition of buffered solutions of inhibitor and substrate to enzyme. Data analysis was conducted according to one of two procedures depending on the appearance of the progress curves in the presence of inhibitors. […] Ki values were calculated from IC50 values using equation 2 assuming a competitive model.
Take `CCCC[C@H](NC(=O)O[C@H](Cn1ccc(-c2ccc(C(F)(F)F)cc2)n1)C(C)(C)C)C(=O)CNC(=O)N1CCOCC1` [Example 4, (1S)-2,2-dimethyl-1-({3-[4-(trifluoromethyl)phenyl]-1H-pyrazol-1-yl}methyl)propyl (1S)-1-{[(4-morpholinylcarbonyl)amino]acetyl}pentylcarbamate]: the concentration for half-maximal inhibition (IC50) lay within 1000 to 10000 nM.

Still in this assay, the particulars now being: Table 1, Inhibition of Cathepsin K (Ki in nM); recombinant human enzyme, 10 μM substrate, pH 5.5, 30° C.; read-out: hCat K IC50.
With `CC(C)(C)[C@@H](Cn1ccc(-c2ccc(C(F)(F)F)cc2)n1)OC(=O)NCC(=O)CNS(=O)(=O)c1ccccn1` [Example 1, (1S)-2,2-dimethyl-1-({3-[4-(trifluoromethyl)phenyl]-1H-pyrazol-1-yl}methyl)propyl 2-oxo-3-[(2-pyridinylsulfonyl)amino]propylcarbamate], the IC50 lay in the range of 10 to 100 nM.

Consider `C[C@H](NC(=O)O[C@H](Cn1ccc(-c2ccc(C(F)(F)F)cc2)n1)C(C)(C)C)C(=O)CNS(=O)(=O)c1ccccn1` [Example 2, (1S)-2,2-dimethyl-1-({3-[4-(trifluoromethyl)phenyl]-1H-pyrazol-1-yl}methyl)propyl (1S)-1-methyl-2-oxo-3-[(2-pyridinylsulfonyl)amino]propylcarbamate], for which the IC50 was 10 to 100 nM.

Consider `CCCC[C@H](NC(=O)O[C@H](Cn1ccc(-c2ccc(C(F)(F)F)cc2)n1)C(C)(C)C)C(=O)CNS(=O)(=O)c1ccccn1` [Example 3, (1S)-2,2-dimethyl-1-({3-[4-(trifluoromethyl)phenyl]-1H-pyrazol-1-yl}methyl)propyl (1S)-1-{[(2-pyridinylsulfonyl)amino]acetyl}pentylcarbamate], for which the IC50 lay in the range of 10 to 100 nM.

For the molecule `CCCC[C@H](NC(=O)O[C@H](Cn1ccc(-c2ccc(C(F)(F)F)cc2)n1)C(C)(C)C)C(=O)CNc1cccc(F)n1` [Example 5, (1S)-2,2-dimethyl-1-({3-[4-(trifluoromethyl)phenyl]-1H-pyrazol-1-yl}methyl)propyl (1S)-1-{[(6-fluoro-2-pyridinyl)amino]acetyl}pentylcarbamate], the IC50 was less than 10 nM.

For `CCCC[C@H](NC(=O)O[C@H](Cn1ccc(C(F)(F)F)n1)C(C)(C)C)C(=O)CNS(=O)(=O)c1ccccn1` [Example 7, (1S)-2,2-dimethyl-1-{[3-(trifluoromethyl)-1H-pyrazol-1-yl]methyl}propyl (1S)-1-{[(2-pyridinylsulfonyl)amino]acetyl}pentylcarbamate], the IC50 is 10 to 100 nM.

`C[C@H](NC(=O)O[C@H](Cn1ccc(C(F)(F)F)n1)C(C)(C)C)C(=O)CNS(=O)(=O)c1ccccn1` [Example 8, (1S)-2,2-dimethyl-1-{[3-(trifluoromethyl)-1H-pyrazol-1-yl]methyl}propyl (1S)-1-methyl-2-oxo-3-[(2-pyridinylsulfonyl)amino]propylcarbamate]: the IC50 was 100 to 1000 nM.

On to `CCCC[C@H](NC(=O)O[C@H](c1nc2cc(C(F)(F)F)ccc2s1)C(C)(C)C)C(=O)CNS(=O)(=O)c1ccccn1` [Example 9, (1S)-2,2-dimethyl-1-[5-(trifluoromethyl)-1,3-benzothiazol-2-yl]propyl (1S)-1-{[(2-pyridinylsulfonyl)amino]acetyl}pentylcarbamate], for which the IC50 lay within 10 to 100 nM.

For `C[C@H](NC(=O)O[C@H](c1nc2cc(C(F)(F)F)ccc2s1)C(C)(C)C)C(=O)CNS(=O)(=O)c1ccccn1` [Example 10, (1S)-2,2-dimethyl-1-[5-(trifluoromethyl)-1,3-benzothiazol-2-yl]propyl (1S)-1-methyl-2-oxo-3-[(2-pyridinylsulfonyl)amino]propylcarbamate], the IC50 lay within 100 to 1000 nM.

For the molecule `CCCC[C@H](NC(=O)O[C@H](Cn1cc(-c2ccc(C(F)(F)F)cc2)cn1)C(C)(C)C)C(=O)CNS(=O)(=O)c1ccccn1` [Example 11, (1S)-2,2-dimethyl-1-({4-[4-(trifluoromethyl)phenyl]-1H-pyrazol-1-yl}methyl)propyl (1S)-1-{[(2-pyridinylsulfonyl)amino]acetyl}pentylcarbamate], the IC50 lay in the range of 10 to 100 nM.

Take `CCCC[C@H](NC(=O)O[C@H](Cn1nccc1-c1ccc(C(F)(F)F)cc1)C(C)(C)C)C(=O)CNS(=O)(=O)c1ccccn1` [Example 12, (1S)-2,2-dimethyl-1-({5-[4-(trifluoromethyl)phenyl]-1H-pyrazol-1-yl}methyl)propyl (1S)-1-{[(2-pyridinylsulfonyl)amino]acetyl}pentylcarbamate]: the IC50 lay in the range of 10 to 100 nM.

As to `CCCC[C@H](NC(=O)O[C@H](Cn1ccc(-c2cccnc2)n1)C(C)(C)C)C(=O)CNS(=O)(=O)c1ccccn1` [Example 13, (1S)-2,2-dimethyl-1-{[3-(3-pyridinyl)-1H-pyrazol-1-yl]methyl}propyl (1S)-1-{[(2-pyridinylsulfonyl)amino]acetyl}pentylcarbamate], the IC50 was less than 10 nM.

`CCCC[C@H](NC(=O)O[C@H](Cn1ccc(-c2ccncc2)n1)C(C)(C)C)C(=O)CNS(=O)(=O)c1ccccn1` [Example 14, (1S)-2,2-dimethyl-1-{[3-(4-pyridinyl)-1H-pyrazol-1-yl]methyl}propyl (1S)-1-{[(2-pyridinylsulfonyl)amino]acetyl}pentylcarbamate]: the IC50 is less than 10 nM.

With `CCCC[C@H](NC(=O)O[C@H](Cn1cnc2cc(Cl)c(Cl)cc21)C(C)(C)C)C(=O)CNS(=O)(=O)c1ccccn1` [Example 15, (1S)-1-[(5,6-dichloro-1H-benzimidazol-1-yl)methyl]-2,2-dimethylpropyl (1S)-1-{[(2-pyridinylsulfonyl)amino]acetyl}pentylcarbamate], the half-maximal inhibitory concentration (IC50) is less than 10 nM.

Consider `CC(C)(C)[C@@H](Cn1cnc2cc(Cl)c(Cl)cc21)OC(=O)NCC(=O)CNS(=O)(=O)c1ccccn1` [Example 17, (1S)-1-[(5,6-dichloro-1H-benzimidazol-1-yl)methyl]-2,2-dimethylpropyl 2-oxo-3-[(2-pyridinylsulfonyl)amino]propylcarbamate], for which the IC50 is less than 10 nM.

As for `CCCC[C@H](NC(=O)O[C@H](Cn1cnc(-c2ccc(C(F)(F)F)cc2)c1)C(C)(C)C)C(=O)CNS(=O)(=O)c1ccccn1` [Example 18, (1S)-2,2-dimethyl-1-({4-[4-(trifluoromethyl)phenyl]-1H-imidazol-1-yl}methyl)propyl (1S)-1-{[(2-pyridinylsulfonyl)amino]acetyl}pentylcarbamate], the IC50 was less than 10 nM.

`CCCC[C@H](NC(=O)O[C@H](COc1ccc(-n2ccnc2)cc1)C(C)(C)C)C(=O)CNS(=O)(=O)c1ccccn1` [Example 19, (1S)-1-{[4-(1H-imidazol-1-yl)phenoxy]methyl}-2,2-dimethylpropyl (1S)-1-{[(2-pyridinylsulfonyl)amino]acetyl}pentylcarbamate]: the IC50 was less than 10 nM.
